Structures are written as SMILES. “And” between values parts separate entries of the source, which are not always exact repeats. Identical values can stand only once.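 Test compounds were applied to cells in 96-well plates for 48 hours at 5 doses. Here, GI50 denotes the concentration required for 50% inhibition of growth. TGI: concentration producing complete growth inhibition.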 Where a SMILES comes first, the peptide text is derived from it. [ ]: non-standard residue; d: D form. The star is where a group is joined. ξ: configuration not given here. X3 = COc1ccc(C(N*)c2ccc(OC)cc2)cc1; NMeF = CN[C@@H](Cc1ccccc1)C(=O)O; NMeD = CN[C@@H](CC(=O)O)C(=O)O; NMeV = CN[C@H](C(=O)O)C(C)C; ξNMeV = CNC(C(=O)O)C(C)C; Boc = CC(C)(C)OC(=O)*; ξNMeA = CNC(C)C(=O)O; ξV = CC(C)C(N)C(=O)O

Holding throughout (test): DTP human tumour cell line panel, 48 h
In test [1] the test system is MDA-MB-231 breast.
Test [2] relates to NCI-H23 lung.
The test system of test [3] is NCI-H226 lung.
For test [4], the system named is 786-0 renal.
For test [5], the system named is M14 melanoma.
For test [6], the system named is DU-145 prostate.
Test [7] relates to SNB-19 CNS.
Test [8] has as its system SF-268 CNS.
Test [9] relates to HT29 colon.
The test system of test [10] is RPMI-8226 leukemia.

For orientation: TGI means the concentration giving total growth inhibition. A higher TGI goes with less potent growth arrest. Take `O=C(O)c1ccc2c(c1C(=O)O)C(=O)OC2(c1ccc(O)cc1)c1ccc(O)cc1`: the TGI in test [1], in [2], in test [3], in test [4], in [5] and in test [6] was greater than 100 µM throughout. Further, the TGI in test [7], in test [8], in test [9] and in [10] was greater than 100 µM in each case.

As usually defined, the GI50 is the concentration giving 50% growth inhibition. With `Nc1ccc(C2=NNC(=O)Cc3cc4c(cc32)OCCO4)cc1Cl`, the GI50 is 27100 nM in test [1]; 5.28 µM in test [2]; 8.12 µM in test [3]; 6.51 µM in [4]; 2300 nM in [5]; 11.4 µM in [6]. Moreover, the GI50 in test [7] was 8.19 µM; in test [8], 8.77 µM; in test [9], 2110 nM; in [10] it was 7.56 µM. For the same compound, the TGI in [1], in [2], in [3], in test [4], in test [5] and in test [6] was greater than 50 µM throughout. Besides, the TGI in [7], in test [8], in [9] and in test [10] was greater than 50 µM each time.

With `COc1ccc(C(NC(=O)C[C@@H](C(=O)N(C)C(C)C(=O)O)N(C)C(=O)[C@@H]2CCCN2C(=O)[C@H](C(C)C)N(C)C(=O)C(C(C)C)N(C)C(=O)[C@H](Cc2ccccc2)N(C)C(=O)C(NC(=O)OC(C)(C)C)C(C)C)c2ccc(OC)cc2)cc1` (stereo partly specified) (Boc-[ξV][NMeF][ξNMeV][NMeV]P[NMeD](X3)[ξNMeA]-OH), the TGI was 32.3 µM in [1]; 37.5 µM and 53.4 µM in test [2]; 19.2 µM and 32.3 µM in [3]; 33.4 µM and 31.7 µM in [4]; 28.6 µM and 31.1 µM in test [5]; 37.5 µM in [6]. The TGI in [7] was 37.5 µM and 33 µM; in test [8], 31.9 µM and 28.6 µM; in test [9], 37.2 µM and 32.4 µM; in [10], 19.5 µM. Moreover, the GI50 is 23.1 µM in [2]; 18 µM in test [3]; 17.9 µM in test [4]; 17400 nM in test [5]; 17.5 µM in test [7]; 15.1 µM in test [8].

As to `COc1ccc(/C=N/NC(=O)c2cccc3cc[nH]c23)cc1O`, the GI50 was 685 nM in test [1]; 6.57 µM in test [2]; 6.28 µM in [3]; 5.13 µM in [4]; 1130 nM in test [5]; 3 µM in test [6]. Moreover, the GI50 is 4.07 µM in [7], 4.01 µM in test [8], 4320 nM in test [9] and 3.38 µM in test [10]. Further, the TGI in [1] is greater than 35 µM; in test [2], greater than 100 µM; in test [3], greater than 33.7 µM; in test [4] it was greater than 100 µM; in test [5], greater than 100 µM; in test [6], greater than 46.5 µM. Also, the TGI is greater than 100 µM in test [7], greater than 100 µM in test [8], greater than 100 µM in [9] and 24.8 µM in test [10].

As for `Cc1nnc(NC(=O)c2nc(S(=O)(=O)Cc3ccc(F)cc3)ncc2Cl)s1`, the GI50 in [1] is 1780 nM; in test [2] it was 12.5 µM; in [3], 6.27 µM; in test [4], 4.32 µM; in [5], 2880 nM; in test [6], 9.44 µM. Besides, the GI50 in test [7] was 15.6 µM; in [8], 3.88 µM; in [9], 2340 nM; in [10] it was 2.21 µM. For the same compound, the TGI in test [1] was found to be 3.31 µM; in test [2], 32.5 µM; in test [3], 25.7 µM; in [4] it was 15.5 µM; in test [5] it was 10.3 µM; in [6], 21.7 µM. For the same compound, the total growth inhibition concentration (TGI) in test [7] turned out to be 35.1 µM; in test [8] it was 16.8 µM; in [9], 5.8 µM; in [10], 12.8 µM.

Turning to `CCN1C(=O)N(c2ccccc2)C2NC(=S)N(/N=C/C=C/c3ccccc3OC)C21` (stereo unspecified), the concentration for 50% growth inhibition (GI50) is 92.1 nM in test [1]; 0.174 µM in test [2]; 0.3 µM in test [3]; 0.182 µM in test [4]; 94.6 nM in [5]; 0.115 µM in [6]. Further, the GI50 is 0.133 µM in test [7], 0.195 µM in test [8], 111 nM in [9] and 0.126 µM in test [10]. The TGI in [1] is 5.13 µM; in test [2], greater than 61.6 µM; in test [3], greater than 40 µM; in test [4], greater than 68.8 µM; in [6] it was greater than 34.4 µM; in test [7], greater than 52.9 µM. Moreover, the TGI in test [8] was greater than 100 µM; in test [9] it was greater than 100 µM; in test [10], 14.2 µM.

With `COc1cccc(C(=O)NC(c2ccc(C)cc2)c2cc(Cl)c3cccnc3c2O)c1` (stereo unspecified), the GI50 in test [1] is 612 nM; in test [2], 0.552 µM; in test [3], 0.568 µM; in test [4], 0.725 µM; in test [5], 677 nM; in test [6], 1.14 µM. In addition, the GI50 in test [7] was 0.371 µM; in [8] it was 0.619 µM; in [9], 623 nM; in [10], 0.621 µM. For the same compound, the TGI in [1] was 15.4 µM; in test [2], 22.2 µM; in [3] it was 2.57 µM; in test [4] it was 5.5 µM; in [5], 10.8 µM; in [6] it was 14.3 µM. Also, the TGI in [7] is 29 µM; in test [8], 12.4 µM; in test [9], 19.8 µM; in test [10] it was 19.1 µM.

With `O=S(=O)(c1ccccc1)N1CCN(S(=O)(=O)c2ccccc2)c2ccccc21`, the TGI in [1], in test [2], in test [3], in test [4], in test [5] and in test [6] was greater than 100 µM throughout. For the same compound, the TGI in test [7], in test [8], in test [9] and in test [10] was greater than 100 µM throughout.

As for `N#Cc1c[nH]n2c(N=Nc3ccc(Cl)cc3)c(O)nc12`, the GI50 was 16200 nM in test [1]; 18 µM in test [2]; 18.5 µM in test [3]; 51.6 µM in test [4]; 77300 nM in [5]; 42.6 µM in test [6]. Besides, the GI50 in test [7] is 33.8 µM; in test [8] it was 20.6 µM; in [9], 50200 nM; in test [10], 25.7 µM. Further, the concentration for total growth inhibition (TGI) in [1] is greater than 100 µM; in test [2], 51.2 µM; in [3] it was 43.3 µM; in test [4], greater than 100 µM; in [5], greater than 100 µM; in test [6], greater than 100 µM. Moreover, the TGI in test [7] is greater than 100 µM; in test [8], 77.4 µM; in test [9], greater than 100 µM; in [10] it was 95.3 µM.

For the compound `COc1ccc(CCN=C2NC(=O)/C(=C/c3ccc4ncccc4c3)S2)cc1`, the GI50 in test [1] was greater than 25000 nM; in test [2], greater than 25 µM; in test [3], greater than 25 µM; in test [4], greater than 25 µM; in test [5], greater than 25000 nM; in [6] it was greater than 25 µM. Moreover, the GI50 is greater than 25 µM in [7], greater than 25 µM in test [8], greater than 25000 nM in test [9] and greater than 25 µM in test [10]. The TGI in test [1], in test [2], in test [3], in [4], in test [5] and in test [6] was greater than 25 µM throughout. For the same compound, the TGI in test [7], in [8], in test [9] and in test [10] was greater than 25 µM in each case.

`CC1=C2C(=C[C@@](C)(CO)[C@@H]2O)C(=O)[C@](C)(O)C12CC2`: the GI50 in [1] was 503 nM; in test [2], 0.3 µM; in [10], 1.15 µM. For the same compound, the TGI in test [3] is 0.0507 µM and 0.0611 µM; in test [4], 0.0143 µM and 0.0638 µM; in [5] it was 0.0228 µM; in test [6], 0.0597 µM; in test [7], 0.0921 µM; in test [8], 0.0192 µM and 0.106 µM. Besides, the TGI in [9] was 0.0286 µM; in test [10], 6.09 µM and 12.3 µM.

For `CCn1c(-c2nonc2N)nc2c(C#CC(C)(C)O)nc(OC[C@@H](N)c3ccccc3)cc21`, the GI50 in test [1] was 4680 nM; in [2], 5.13 µM; in [3] it was 11.9 µM; in test [4] it was 2.98 µM; in test [5] it was 4520 nM; in [6], 4.45 µM. Moreover, the GI50 in test [7] was 6 µM; in [8], 5.04 µM; in test [9] it was 4900 nM; in [10] it was 6.51 µM. In addition, the total growth inhibition concentration (TGI) came out at 8.86 µM in [1]; 10.8 µM in test [2]; 16.2 µM in [3]; 6.35 µM in [4]; 8.11 µM in test [5]; 8.85 µM in [6]. Further, the TGI in test [7] was 11.6 µM; in test [8], 9.22 µM; in test [9], 9.53 µM; in [10] it was 15.5 µM.
